Source: ChEMBL document CHEMBL1137202, “Synthesis and biological activity of new potential agonists for the human adenosine A2A receptor” (J Med Chem, 2004)

How the values were obtained:
[1] = target: T1, Adenosine receptor A2a (Homo sapiens, UniProt P29274)
Description: Potency against cAMP formation in CHO cells expressing recombinant human A2A receptor

[2] = target: T2, Adenosine receptor A3 (Homo sapiens, UniProt P0DMS8); assay: Inhibition of [3H]NECA binding to human adenosine A3 receptor expressed in HeLa cells; type: cell-based
T2 sequence (P0DMS8 whole entry): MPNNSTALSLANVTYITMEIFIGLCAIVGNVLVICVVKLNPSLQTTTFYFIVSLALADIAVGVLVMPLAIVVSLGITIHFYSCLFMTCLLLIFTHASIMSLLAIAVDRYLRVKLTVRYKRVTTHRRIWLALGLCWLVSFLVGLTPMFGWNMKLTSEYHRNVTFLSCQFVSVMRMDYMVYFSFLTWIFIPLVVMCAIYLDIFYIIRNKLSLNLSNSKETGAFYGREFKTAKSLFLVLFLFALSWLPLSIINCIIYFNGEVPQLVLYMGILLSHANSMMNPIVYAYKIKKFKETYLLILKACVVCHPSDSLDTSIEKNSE

[3] = target: T1, Adenosine receptor A2a; assay: biochemical
Description: Inhibition of [3H]ZM-241385 binding to human adenosine A2A receptor expressed in HeLa cells

[4] = target: Adenosine receptor A2a (Rattus norvegicus, UniProt P30543)
Description: Efficacy against phenylephrine precontracted tissue relaxation in rat aorta

[5] = species: Cavia porcellus; assay: Concentration-Relaxation Studies was exerted on Guinea Pig Tracheal Rings Precontracted by Carbachol by the compound in presence of Adenosine antagonist DMPX ( E-4 M); type: functional, organism-based; settings: Trachea
[6] = target: T3, Adenosine receptor A2b (Homo sapiens, UniProt P29275); assay: Inhibition of [3H]DPCPX binding to human adenosine A2B receptor expressed in HEK293 cells; type: cell-based
T3 sequence (P29275 whole entry): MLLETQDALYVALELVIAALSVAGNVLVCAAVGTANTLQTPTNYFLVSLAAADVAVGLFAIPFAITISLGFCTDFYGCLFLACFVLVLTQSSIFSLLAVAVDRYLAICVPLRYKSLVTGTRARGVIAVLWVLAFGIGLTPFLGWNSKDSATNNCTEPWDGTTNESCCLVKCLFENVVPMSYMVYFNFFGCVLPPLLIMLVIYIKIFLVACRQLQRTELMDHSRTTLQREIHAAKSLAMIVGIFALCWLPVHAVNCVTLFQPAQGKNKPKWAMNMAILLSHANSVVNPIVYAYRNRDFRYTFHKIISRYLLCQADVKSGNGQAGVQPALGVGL

[7] = target: T3, Adenosine receptor A2b; assay: Potency against cAMP formation in CHO cells expressing recombinant human A2B receptor; type: functional, cell-based
[8] = species: Cavia porcellus; assay: Concentration-Relaxation Studies was exerted on Guinea Pig Tracheal Rings Precontracted by Carbachol by the compound in presence of Adenosine antagonist CSC ( E-4 M); type: functional, organism-based; settings: Trachea
[9] = target: T4, Adenosine receptor A1 (Homo sapiens, UniProt P30542); assay: Inhibition of [3H]DPCPX binding to human adenosine A1 receptor expressed in CHO cells; type: cell-based
T4 sequence (P30542 whole entry): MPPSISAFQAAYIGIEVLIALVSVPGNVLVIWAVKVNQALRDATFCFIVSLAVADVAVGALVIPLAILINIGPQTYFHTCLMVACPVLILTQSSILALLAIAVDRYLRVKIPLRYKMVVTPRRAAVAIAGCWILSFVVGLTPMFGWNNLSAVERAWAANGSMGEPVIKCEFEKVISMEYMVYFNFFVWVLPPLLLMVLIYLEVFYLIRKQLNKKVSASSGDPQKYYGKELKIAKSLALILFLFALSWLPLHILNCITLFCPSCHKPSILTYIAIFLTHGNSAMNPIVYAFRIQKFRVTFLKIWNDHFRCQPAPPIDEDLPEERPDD

[10] = species: Cavia porcellus; assay: Concentration-Relaxation Studies was exerted on Guinea Pig Tracheal Rings Precontracted by Carbachol by the compound in presence of Adenosine antagonist Alloxazine ( E-4 M); type: functional, organism-based; settings: Trachea
[11] = system: Adenosine receptor A2b (Cavia porcellus); assay: Relative efficacy against phenylephrine precontracted tissue relaxation in Guinea pig aorta compared to NECA
[12] = target: Adenosine receptor A2b (Cavia porcellus); assay: Relative efficacy against phenylephrine precontracted tissue relaxation in Guinea pig aorta
[13] = species: Cavia porcellus; assay: Concentration-Relaxation Studies was exerted on Guinea Pig Tracheal Rings Precontracted by Carbachol by the compound in presence of Adenosine antagonist 8-PT ( E-4 M); type: functional, organism-based; settings: Trachea

Adenosine receptor A2a (Rattus norvegicus, UniProt P30543), sequence (P30543 whole entry): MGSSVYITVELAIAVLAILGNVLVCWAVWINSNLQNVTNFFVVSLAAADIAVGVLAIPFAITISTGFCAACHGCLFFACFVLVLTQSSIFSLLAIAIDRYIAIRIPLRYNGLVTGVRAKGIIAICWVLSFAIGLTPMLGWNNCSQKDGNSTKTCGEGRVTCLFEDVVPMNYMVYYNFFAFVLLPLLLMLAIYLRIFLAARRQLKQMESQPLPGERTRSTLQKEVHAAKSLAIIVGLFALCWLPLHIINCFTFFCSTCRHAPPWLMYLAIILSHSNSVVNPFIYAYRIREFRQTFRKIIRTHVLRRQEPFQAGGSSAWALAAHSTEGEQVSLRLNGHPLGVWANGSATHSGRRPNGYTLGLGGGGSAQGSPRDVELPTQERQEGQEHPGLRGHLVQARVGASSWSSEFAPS
T1 sequence (P29274 whole entry): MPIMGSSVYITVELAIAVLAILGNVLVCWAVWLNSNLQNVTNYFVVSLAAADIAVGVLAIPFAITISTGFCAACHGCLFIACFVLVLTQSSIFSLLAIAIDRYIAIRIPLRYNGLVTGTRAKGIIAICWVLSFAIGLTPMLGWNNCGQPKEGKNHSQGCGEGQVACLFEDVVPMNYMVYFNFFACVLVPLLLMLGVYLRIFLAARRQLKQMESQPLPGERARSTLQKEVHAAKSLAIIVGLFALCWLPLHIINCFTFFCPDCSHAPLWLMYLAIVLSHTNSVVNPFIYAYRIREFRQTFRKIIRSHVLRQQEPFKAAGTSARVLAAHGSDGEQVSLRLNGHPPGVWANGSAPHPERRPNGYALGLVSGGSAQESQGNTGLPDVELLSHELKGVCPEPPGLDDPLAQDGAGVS

Row | Structure (SMILES) | EC50 [1] | Ki [2] | Ki [3] | EC50 [4] | EC50 [5] | Ki [6] | EC50 [7] | EC50 [8] | Ki [9] | EC50 [10] | Emax [11] | EC50 [12] | EC50 [13]
1 | CCn1nnc([C@H]2O[C@@H](n3cnc4c(N)nc(N[C@H](CO)Cc5ccccc5)nc43)[C@H](O)[C@@H]2O)n1 [GW-328267] | 8.8 nM | – | 46 nM | 10 nM | 46000 nM | – | – | 51000 nM | 369 nM | 88000 nM | – | – | 64000 nM
2 | Nc1ncnc2c1ncn2[C@@H]1O[C@H](CO)[C@@H](O)[C@H]1O [ADENOSINE] | – | – | – | – | 340000 nM | – | – | 570000 nM | – | 550000 nM | – | – | 460000 nM
3 | CCNC(=O)[C@H]1O[C@@H](n2cnc3c(N)ncnc32)[C@H](O)[C@@H]1O [NECA] | – | – | – | – | 77000 nM | – | – | 84000 nM | – | 88000 nM | – | – | 65000 nM
4 | CCn1nnc([C@H]2O[C@@H](n3cnc4c(N)nc(N[C@H](C)Cc5ccc(OC)cc5)nc43)[C@H](O)[C@@H]2O)n1 | 3 nM | 100 nM | 1 nM | 4 nM | 23000 nM | – | – | 26000 nM | 356 nM | 15000 nM | – | – | –

The next lines start with results.

Row | EC50 [1] | Ki [2] | Ki [3] | EC50 [4] | EC50 [5] | Ki [6] | EC50 [7] | EC50 [8] | Ki [9] | EC50 [10] | Emax [11] | EC50 [12] | Structure (SMILES) | EC50 [13]
5 | 8 nM | 140 nM | 5 nM | 2.9 nM | – | – | – | – | – | – | – | – | CCn1nnc([C@H]2O[C@@H](n3cnc4c(N)nc(N[C@H](CO)Cc5ccc(O)cc5)nc43)[C@H](O)[C@@H]2O)n1 | –
6 | 1.4 nM | 130 nM | 38 nM | – | 36000 nM | 1180 nM | 680 nM | 22000 nM | > 10000 nM | 36000 nM | – | – | CCn1nnc([C@H]2O[C@@H](n3cnc4c(N)nc(N[C@H](CO)Cc5ccc(OC)cc5)nc43)[C@H](O)[C@@H]2O)n1 | –
7 | 1.6 nM | 83 nM | 5 nM | 6.7 nM | – | 2260 nM | 560 nM | – | 310 nM | – | 125% | 1300 nM | CCn1nnc([C@H]2O[C@@H](n3cnc4c(N)nc(N[C@H](CO)Cc5ccc(Br)cc5)nc43)[C@H](O)[C@@H]2O)n1 | –
8 | 97 nM | 288 nM | 270 nM | – | – | 2720 nM | 4700 nM | 17000 nM | 670 nM | 38000 nM | – | – | CCn1nnc([C@H]2O[C@@H](n3cnc4c(N)nc(N[C@H](CO)Cc5ccc(Cl)cc5)nc43)[C@H](O)[C@@H]2O)n1 | –
9 | 3.1 nM | 400 nM | 48 nM | – | – | 3660 nM | 1200 nM | – | > 10000 nM | – | – | – | CCn1nnc([C@H]2O[C@@H](n3cnc4c(N)nc(N[C@H](CO)Cc5ccc([N+](=O)[O-])cc5)nc43)[C@H](O)[C@@H]2O)n1 | –
